Source: patent US6709830B2, “Methods for modulating the activation of a lymphocyte expressed G protein coupled receptor involved in cell proliferation, autoimmunity and inflammation” (The Regents of the University of California, priority 1997, dated 2004)
“Also recorded” adds a separate entry of the source.

Columns and labels:
G2A.GFP fusion receptor = biological target: T1, G2A.GFP fusion receptor (Mus musculus, UniProt Q9Z282); assay: Internalisation of G2A.GFP in HEK 293 G2A.GFP cells (confocal microscopy); assay type: cell-based; conditions: 2 hours, serum starved HEK 293 G2A.GFP cells
T1 construct: expressed in transfected cells; host or cells: HEK 293 cells infected with amphotropic MSCV G2A.GFP retrovirus
T1 sequence (Q9Z282 1-382): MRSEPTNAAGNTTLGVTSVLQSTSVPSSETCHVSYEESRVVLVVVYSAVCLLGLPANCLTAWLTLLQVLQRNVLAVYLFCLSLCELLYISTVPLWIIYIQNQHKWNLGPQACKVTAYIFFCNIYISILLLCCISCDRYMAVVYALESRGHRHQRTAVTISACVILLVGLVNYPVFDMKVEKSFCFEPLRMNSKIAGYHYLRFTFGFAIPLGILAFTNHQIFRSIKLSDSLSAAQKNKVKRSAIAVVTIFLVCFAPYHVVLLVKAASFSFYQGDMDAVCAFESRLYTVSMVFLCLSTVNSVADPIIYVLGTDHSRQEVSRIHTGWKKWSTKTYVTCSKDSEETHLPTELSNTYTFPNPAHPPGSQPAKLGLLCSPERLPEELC
Experimental: Agonist dependent receptor internalisation is a feature of GPCRs. G2A.GFP expressing HEK 293 cells (HEK 293 G2A.GFP) were generated by infection with amphotropic MSCV G2A.GFP retroviruses. In serum starved HEK 293 G2A.GFP cells, G2A.GFP is expressed predominantly on the plasma membrane. LPC (0.1 μM), as well as SPC (1 μM), induced internalisation of G2A.GFP in over 90% of cells (FIG. 6). Neither LPA, S-1-P or PAF induced G2A internalisation, which is consistent with LPC acting as a specific ligand for G2A. Treatment of HEK 293 G2A.GFP cells with SPC at low concentrations (0.1 μM) induced receptor internalisation in fewer cells (<50%).
HEK 293 G2A.GFP cells were seeded onto glass coverslips and subsequently serum starved for 16-24 hours prior to treatment with lipids. Two hours following lipid treatment, coverslips were washed with cold PBS and fixed with PBS/4% paraformaldehyde. Subcellular localisation of G2A.GFP was visualised under a confocal fluorescence microscope with a 60× oil immersion lens.

MCF 10A cells = assay: Calcium assay ([Ca2+]i, Fura-2) in parental or pEXV3 GFP transfected MCF 10A cells (control); assay type: cell-based, human; conditions: SPC or LPC up to 10 μM, LPA 1 μM, PAF 0.1 μM, ATP 20 μM
Experimental: (§1) MCF 10A cells were cultured in specialised glass-bottom dishes (Bioptech, Inc., Butler, Pa.) and loaded with Fura-2/AM ([…]; Molecular Probes) at 37° C. for 30 minutes in HEPES buffered saline (pH 7.4) containing 125 mM NaCl, 5 mM KCl, 1.2 mM MgSO4, 11 mM glucose, 1.8 mM CaCl2, 25 mM HEPES, 0.2% BSA. Loaded cells were washed, placed in HEPES buffeted saline without BSA, and incubated for 30 minutes at ambient temperature ensure dye hydrolysis by cytosolic esterases. Using a dual-wavelength spectrofluorometer (RFK-6002, Photon Technology Int'l, So. Brunswick, N.J.) coupled to an inverted fluorescence microscope (Olympus, IX-70, Lake Success, N.Y.), GFP-positive cells were identified using an excitation wavelength of 488 nm, a dichroic 505 nm long-pass and an emitter bandpass of 535 nm (Chroma Technology, Brattleboro, Vt.). [Ca^2+], measurements were performed on individual GFP-positive cells at excitation wavelengths of 340 nm and 380 nm, and an emission wavelength of 510 nm. Prior to data acquisition, background fluorescence (areas without cells) was measured and automatically subtracted from subsequent measurements. Agonists were diluted in HEPES buffered saline and solution changes accomplished by rapidly aspirating the buffer and replacing it with HEPES buffered saline containing the specific agonist. Fura-2 fluorescence signals (340 nm, 380 nm and the 340/380 ratio) originating from individual GFP-positive cells were continuously monitored at a sampling frequency of 25 Hz and collected using a software package from Photon Technology International (Felix™). Conversion of the 340 nm/380 nm ratio value into [Ca^2+]i was estimated by comparing the cellular fluorescence ratio with ratios acquired using Fura-2 (free acid) in buffers containing known Ca^2+ concentrations. [Ca^2+]i was then calculated as described by Grynkiewicz, et al (Grynkiewicz, G, et al, J Biol Chem, 260: pp3440-3450, 1985). All assays were performed in assay buffers containing 1 mM EGTA to exclude measurement of calcium influx.
(§2) To address whether G2A is a lysophospholipid receptor, we examined signalling events in cells ectopically expressing G2A as functional correlates of receptor activation. […] [Ca^2+]i measurements were performed in MCF 10A cells transfected with plasmids encoding green fluorescent protein (GFP) tagged G2A (pEXV3 G2A.GFP) (Kabarowski, J H S, et al, PNAS, 97: pp12109-12114, 2000) or GFP as described (Yan Xu and Derek S. Damron, Methods in Molecular Medicine, 39: Ovarian Cancer: Methods and Protocols, pp611-619, 2000). […] Similarly, dose-dependent responses of G2A.GFP transfected cells to SPC were observed, with an EC50 of approximately 0.4 μM (FIG. 4B). […] Responses to these agonists were not affected by G2A.GFP expression (FIG. 4A, middle and lower panels).

CHO GFP cells = assay: ERK MAP kinase assay in control CHO GFP cells; assay type: cell-based, Chinese hamster; conditions: serum starved CHO GFP cells, LPC 0.01 μM to 10 μM, 10 minutes
Experimental: (§3) Further exploration of the cellular response to LPC was undertaken in Chinese hamster ovary (CHO) cells. Stable lines of G2A expressing CHO cells were derived by infection with retroviruses encoding G2A.GFP (MSCV G2A.GFP). We examined ERK MAP kinase activity in control CHO GFP and CHO G2A.GFP cells in response to varying doses of LPC (0.01 μM to 10 μM).
(§4) CHO GFP or CHO G2A.GFP cells were serum starved for 18 hours prior to treatment with LPC for 10 minutes at 37° C. Western blotting was performed to detect activated p44/42 ERK MAP kinase using a specific phospho-ERK antibody (Santa Cruz Biotechnology,).

G2A [1] = biological target: T2, G2A (Mus musculus, UniProt Q9Z282); assay: Calcium assay ([Ca2+]i, Fura-2) in G2A.GFP transfected MCF 10A cells; assay type: cell-based
T2 construct: expressed in transfected cells; host or cells: MCF 10A (human breast epithelial cells, no endogenous G2A), plasmid pEXV3 G2A.GFP
T2 sequence (Q9Z282 1-382): T1 sequence (Q9Z282 1-382)
Experimental: as §1, §2

G2A [2] = biological target: T2, G2A; assay: ERK MAP kinase assay (phospho-ERK Western blot) in CHO G2A.GFP cells; assay type: cell-based; conditions: serum starved CHO G2A.GFP cells, LPC 0.01 μM to 10 μM, 10 minutes
Experimental: as §3, §4

EC50 (G2A [1]; G2A.GFP transfected MCF 10A cells, 1 mM EGTA in buffer, read-out: EC50 of dose-dependent increase in [Ca2+]i): ~100 nM
Substance: lysophosphatidylcholine [LPC]
induction of G2A internalisation (G2A.GFP fusion receptor): internalisation of G2A.GFP induced by LPC | [Ca2+]i response in control cells (MCF 10A cells): Neither parental or pEXV3 GFP transfected cells responded | ERK MAP kinase activity in control cells (CHO GFP cells): did not respond | transient increase in [Ca2+]i (G2A [1]; G2A.GFP transfected MCF 10A cells, LPC 0.1 μM, SPC 0.1 μM, LPA 1 μM, PAF 0.1 μM, ATP 20 μM): induced a transient increase; also recorded: induce transient [Ca^2+], increases | desensitisation to subsequent stimulation with LPC or SPC (1 μM) (G2A [1]; pretreatment 5 minutes with LPC 1 μM or SPC 10 μM (b23 prints SPC 1.0 μM), G2A.GFP-transfected MCF 10A cells): induced homologous and heterologous desensitisation | ERK MAP kinase activity (G2A [2]): dose-dependent increases; also recorded: activates ERK MAP kinase
